Assay results published in ChEMBL document CHEMBL3352708, “Discovery of oxazole and triazole derivatives as potent and selective S1P(1) agonists through pharmacophore-guided design” (Eur J Med Chem, 2014).

Columns and labels:
in vivo [1] = conditions: Sprague-Dawley, rat, po, 3 mg/kg
Rattus norvegicus [2] = species: Rattus norvegicus; conditions: in vivo, po, 3 mg/kg
Rattus norvegicus [3] = species: Rattus norvegicus; conditions: in vivo, po, 3 mg/kg; remark: listed apart in the source
Rattus norvegicus [4] = species: Rattus norvegicus; conditions: in vivo, po, 3 mg/kg; remark: listed apart in the source
in vivo [5] = conditions: Sprague-Dawley, rat, po, 3 mg/kg; remark: listed apart in the source
in vivo [6] = conditions: Sprague-Dawley, rat, po, 3 mg/kg; remark: listed apart in the source
in vivo [7] = conditions: Sprague-Dawley, rat, plasma, po, 3 mg/kg
in vivo [8] = conditions: Sprague-Dawley, rat, po, 3 mg/kg; remark: listed apart in the source
in vivo [9] = conditions: Sprague-Dawley, rat, po, 3 mg/kg; remark: listed apart in the source

SMILES	Cmax (in vivo [1])	Vss/F (Rattus norvegicus [2])	AUCt (Rattus norvegicus [3])	t1/2 (Rattus norvegicus [4])	Tmax (in vivo [5])	Vd/F (in vivo [6])	AUC(0-t) (in vivo [7])	half-life (in vivo [8])	CL/F (in vivo [9])
CCCCCCCCc1ccc(CCC(N)(CO)COP(=O)(O)O)cc1 (stereo not drawn)	0.385 µg/mL	17.2 L/kg	4.91 µg·h/mL	25.2 h	6 h				
Cl.NC(CO)(CO)CCc1ccc(-c2coc(Cc3ccc(Cl)cc3)n2)cc1	0.109 µg/mL				4 h	44.1 L/kg	1.7 µg·h/mL	21.1 h	1.5 L/h/kg
CCCCCCCCc1ccc(CCC(N)(CO)CO)cc1 [FINGOLIMOD]	0.0132 µg/mL	208 L/kg	0.319 µg·h/mL	18.9 h	8.4 h				

Results, then the compound that gave them:

Cmax (in vivo [1])	Vss/F (Rattus norvegicus [2])	AUCt (Rattus norvegicus [3])	t1/2 (Rattus norvegicus [4])	Tmax (in vivo [5])	Vd/F (in vivo [6])	AUC(0-t) (in vivo [7])	half-life (in vivo [8])	CL/F (in vivo [9])	SMILES
0.00951 µg/mL				4.7 h	300 L/kg	0.0734 µg·h/mL	5.2 h	41.5 L/h/kg	COc1ccc(-c2nc(-c3ccc(CCC(N)(CO)CO)cc3)co2)cc1.Cl
0.0285 µg/mL				6.7 h	60 L/kg	0.9 µg·h/mL	18.8 h	2.2 L/h/kg	Cl.NC(CO)(CO)CCc1ccc(-c2coc(-c3ccc(Cl)cc3)n2)cc1
